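All cell lines were grown in 96-well plates and treated with compound for 48 hours. GI50 is the concentration that inhibits growth by half.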 Active and inactive are the calls of the source. No stated cut-off is given here; in the data, active = GI50 up to about 1.1 µM and inactive = higher.
What was measured:
Test in all cases: DTP human tumour cell line panel, 48 h
ACHN = test system: ACHN
786-0 = test system: 786-0
MDA-N = test system: MDA-N
U-251 = test system: U-251
T47D = test system: T47D
OVCAR-5 = test system: OVCAR-5
OVCAR-3 = test system: OVCAR-3
MOLT-4 = test system: MOLT-4
HCT-15 = test system: HCT-15
NCI/ADR-RES = test system: NCI/ADR-RES
SK-OV-3 = test system: SK-OV-3
HOP-92 = test system: HOP-92
HL-60 = test system: HL-60
SN12C = test system: SN12C
SNB-19 = test system: SNB-19
CAKI-1 = test system: CAKI-1
SK-MEL-2 = test system: SK-MEL-2
RXF 393 = test system: RXF 393
NCI-H23 = test system: NCI-H23
K562 = test system: K562
COLO 205 = test system: COLO 205
KM12 = test system: KM12
MCF7 = test system: MCF7
HOP-62 = test system: HOP-62
SNB-75 = test system: SNB-75
A498 = test system: A498
SK-MEL-28 = test system: SK-MEL-28
UACC-62 = test system: UACC-62
NCI-H460 = test system: NCI-H460
Hs-578T = test system: Hs-578T
RPMI-8226 = test system: RPMI-8226
A549 = test system: A549
CCRF-CEM = test system: CCRF-CEM
UACC-257 = test system: UACC-257
UO-31 = test system: UO-31
SW-620 = test system: SW-620
LOX IMVI = test system: LOX IMVI
M14 = test system: M14
SR = test system: SR
SF-268 = test system: SF-268
DU-145 = test system: DU-145
PC-3 = test system: PC-3
MDA-MB-231 = test system: MDA-MB-231
MDA-MB-435 = test system: MDA-MB-435
HCC 2998 = test system: HCC 2998
HCT-116 = test system: HCT-116
SF-295 = test system: SF-295
OVCAR-4 = test system: OVCAR-4
SK-MEL-5 = test system: SK-MEL-5
IGROV-1 = test system: IGROV-1
OVCAR-8 = test system: OVCAR-8
Malme-3M = test system: Malme-3M
HT-29 = test system: HT-29
TK-10 = test system: TK-10
EKVX = test system: EKVX
NCI-H522 = test system: NCI-H522
SF-539 = test system: SF-539
NCI-H226 = test system: NCI-H226

## CN1C(=O)C(CC=O)(C(C)(C)C)c2ccccc21 (configuration not stated)
ACHN
  GI50: 47.2 µM (inactive)
786-0
  GI50: 41.8 µM (inactive)
MDA-N
  GI50: 33.3 µM (inactive)
U-251
  GI50: > 100 µM (inactive)
T47D
  GI50: 47.1 µM (inactive)
OVCAR-5
  GI50: > 100 µM (inactive)
OVCAR-3
  GI50: > 100 µM (inactive)
MOLT-4
  GI50: 56.8 µM (inactive)
HCT-15
  GI50: 90.6 µM
NCI/ADR-RES
  GI50: > 100 µM (inactive)
SK-OV-3
  GI50: > 100 µM (inactive)
HOP-92
  GI50: 69 µM (inactive)
HL-60
  GI50: > 100 µM (inactive)
SN12C
  GI50: > 100 µM (inactive)
SNB-19
  GI50: > 100 µM (inactive)
CAKI-1
  GI50: 54.7 µM (inactive)
SK-MEL-2
  GI50: > 100 µM (inactive)
RXF 393
  GI50: > 100 µM (inactive)
NCI-H23
  GI50: > 100 µM (inactive)
K562
  GI50: 91.6 µM (inactive)
COLO 205
  GI50: > 100 µM (inactive)
KM12
  GI50: > 100 µM (inactive)
MCF7
  GI50: 69.7 µM (inactive)
HOP-62
  GI50: > 100 µM (inactive)
SNB-75
  GI50: 99.5 µM (inactive)
A498
  GI50: > 100 µM (inactive)
SK-MEL-28
  GI50: > 100 µM (inactive)
UACC-62
  GI50: 93.5 µM (inactive)
NCI-H460
  GI50: > 100 µM (inactive)
Hs-578T
  GI50: 56.6 µM (inactive)
RPMI-8226
  GI50: 37.9 µM (inactive)
A549
  GI50: > 100 µM (inactive)
CCRF-CEM
  GI50: 60 µM (inactive)
UACC-257
  GI50: > 100 µM (inactive)
UO-31
  GI50: 64 µM (inactive)
SW-620
  GI50: 79.6 µM (inactive)
LOX IMVI
  GI50: 37.8 µM (inactive)
M14
  GI50: > 100 µM (inactive)
SR
  GI50: > 100 µM (inactive)
SF-268
  GI50: > 100 µM (inactive)
DU-145
  GI50: 56.4 µM (inactive)
PC-3
  GI50: > 100 µM (inactive)
MDA-MB-231
  GI50: > 100 µM (inactive)
MDA-MB-435
  GI50: 30.8 µM (inactive)
HCC 2998
  GI50: > 100 µM (inactive)
HCT-116
  GI50: 76.4 µM (inactive)
SF-295
  GI50: > 100 µM (inactive)
OVCAR-4
  GI50: > 100 µM (inactive)
SK-MEL-5
  GI50: > 100 µM (inactive)

## COc1ccccc1N/C(=C\C(=O)C(=O)NC12CC3CC(CC(C3)C1)C2)c1ccccc1
ACHN
  GI50: > 10 µM (inactive)
786-0
  GI50: > 10 µM (inactive)
MDA-N
  GI50: > 10 µM (inactive)
U-251
  GI50: > 10 µM (inactive)
T47D
  GI50: > 10 µM (inactive)
OVCAR-5
  GI50: > 10 µM (inactive)
IGROV-1
  GI50: > 10 µM (inactive)
OVCAR-3
  GI50: 5.31 µM (inactive)
MOLT-4
  GI50: > 10 µM (inactive)
HCT-15
  GI50: > 10 µM
NCI/ADR-RES
  GI50: > 10 µM (inactive)
SK-OV-3
  GI50: > 10 µM (inactive)
OVCAR-8
  GI50: > 10 µM (inactive)
HL-60
  GI50: > 10 µM (inactive)
SN12C
  GI50: > 10 µM (inactive)
Malme-3M
  GI50: 3.36 µM (inactive)
CAKI-1
  GI50: > 10 µM (inactive)
HT-29
  GI50: > 10 µM (inactive)
SK-MEL-2
  GI50: > 10 µM (inactive)
RXF 393
  GI50: > 10 µM (inactive)
NCI-H23
  GI50: > 10 µM (inactive)
TK-10
  GI50: > 10 µM (inactive)
K562
  GI50: > 10 µM (inactive)
EKVX
  GI50: > 10 µM (inactive)
COLO 205
  GI50: > 10 µM (inactive)
KM12
  GI50: > 10 µM (inactive)
MCF7
  GI50: > 10 µM (inactive)
NCI-H522
  GI50: > 10 µM (inactive)
HOP-62
  GI50: > 10 µM (inactive)
SNB-75
  GI50: > 10 µM (inactive)
A498
  GI50: > 10 µM (inactive)
SF-539
  GI50: > 10 µM (inactive)
SK-MEL-28
  GI50: > 10 µM (inactive)
NCI-H460
  GI50: > 10 µM (inactive)
Hs-578T
  GI50: > 10 µM (inactive)
RPMI-8226
  GI50: > 10 µM (inactive)
CCRF-CEM
  GI50: > 10 µM (inactive)
UACC-257
  GI50: 9.46 µM (inactive)
UO-31
  GI50: 7.73 µM (inactive)
SW-620
  GI50: > 10 µM (inactive)
LOX IMVI
  GI50: > 10 µM (inactive)
NCI-H226
  GI50: > 10 µM (inactive)
M14
  GI50: > 10 µM (inactive)
SR
  GI50: > 10 µM (inactive)
SF-268
  GI50: > 10 µM (inactive)
DU-145
  GI50: > 10 µM (inactive)
PC-3
  GI50: 7.55 µM (inactive)
MDA-MB-231
  GI50: > 10 µM (inactive)
MDA-MB-435
  GI50: 7.21 µM (inactive)
HCC 2998
  GI50: > 10 µM (inactive)
SF-295
  GI50: > 10 µM (inactive)
OVCAR-4
  GI50: 9.82 µM (inactive)
SK-MEL-5
  GI50: > 10 µM (inactive)

Source: ChEMBL document CHEMBL1201862, “PubChem BioAssay data set” (2004)
